PubChem BioAssay (NCI)
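Method: 48-hour compound exposure of cells in 96-well plates, five concentrations, linear interpolation of endpoints. GI50 marks 50% less growth. The concentration for full growth arrest is given as TGI.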

Assays:
Assay in all cases: NCI-60 cell line screen, 48 h
[1] = system: UACC-62 melanoma
[2] = system: K-562 leukemia
[3] = system: OVCAR-3 ovarian
[4] = system: ACHN renal
[5] = system: SN12C renal
[6] = system: RXF 393 renal
[7] = system: OVCAR-5 ovarian
[8] = system: OVCAR-4 ovarian
[9] = system: SNB-19 CNS
[10] = system: MOLT-4 leukemia
[11] = system: SR leukemia
[12] = system: RPMI-8226 leukemia
[13] = system: MDA-MB-231 breast
[14] = system: HL-60(TB) leukemia
[15] = system: MALME-3M melanoma
[16] = system: NCI-H460 lung
[17] = system: OVCAR-8 ovarian
[18] = system: NCI-H522 lung
[19] = system: COLO 205 colon
[20] = system: T-47D breast
[21] = system: HOP-62 NSCLC
[22] = system: SW-620 colon
[23] = system: 786-0 renal
[24] = system: HCT-15 colon
[25] = system: UO-31 renal
[26] = system: SK-MEL-5 melanoma
[27] = system: CCRF-CEM leukemia
[28] = system: UACC-257 melanoma
[29] = system: HOP-92 NSCLC

Structure (SMILES): CS(=O)c1nccc(-c2c(-c3ccc(F)c(OCc4ccc(F)cc4)c3)nc3sccn23)n1 (configuration not stated)
- TGI [1]: > 100 µM
- GI50 [2]: 6.53 µM
- TGI [2]: > 100 µM
- GI50 [3]: 2.84 µM
- TGI [3]: 10.7 µM
- GI50 [4]: 16.9 µM
- TGI [4]: > 100 µM
- GI50 [5]: > 100 µM
- TGI [5]: > 100 µM
- GI50 [6]: 16.5 µM
- TGI [6]: 63.8 µM
- GI50 [7]: > 100 µM
- TGI [7]: > 100 µM
- GI50 [8]: 22.4 µM
- TGI [8]: 74.1 µM
- GI50 [9]: 14.9 µM
- TGI [9]: 38.6 µM
- GI50 [10]: 10.2 µM
- TGI [10]: 90.2 µM
- GI50 [11]: 17.1 µM
- TGI [11]: > 100 µM
- GI50 [12]: 6.55 µM
- TGI [12]: 43.8 µM
- GI50 [13]: 26.8 µM
- TGI [13]: > 100 µM
- GI50 [14]: 3.54 µM
- TGI [14]: 13.7 µM
- GI50 [15]: > 100 µM
- TGI [15]: > 100 µM
- GI50 [16]: 3.78 µM
- TGI [16]: 14.3 µM
- GI50 [17]: 53.2 µM
- TGI [17]: > 100 µM
- GI50 [18]: 60.6 µM
- TGI [18]: > 100 µM
- GI50 [19]: > 100 µM
- TGI [19]: > 100 µM
- GI50 [20]: 2.64 µM
- TGI [20]: 7 µM
- GI50 [21]: 17.7 µM
- TGI [21]: 40.6 µM
- GI50 [22]: 27 µM
- TGI [22]: > 100 µM
- GI50 [23]: > 100 µM
- TGI [23]: > 100 µM
- GI50 [24]: 16.3 µM
- TGI [24]: > 100 µM
- GI50 [25]: > 100 µM
- TGI [25]: > 100 µM
- GI50 [26]: 44 µM
- TGI [26]: > 100 µM
- GI50 [27]: 15.8 µM
- TGI [27]: > 100 µM
- GI50 [28]: 15 µM
- TGI [28]: 36.5 µM
- GI50 [29]: 5.76 µM
- TGI [29]: 43.9 µM
